Results: ChEMBL document CHEMBL1158971, “Aromatic Secondary Metabolites from the Sponge Tedania ignis” (J Nat Prod, 1991)

What was measured:
[1] = Toxicity against brine shrimp assessed as mortality at 25 ppm after 6 hrs; type: organism-based; details: artemia, in vivo; read-out: Activity
[2] = Toxicity against brine shrimp assessed as mortality at 25 ppm after 8 hrs; type: organism-based; details: artemia, in vivo; read-out: Activity
[3] = Toxicity against brine shrimp assessed as mortality at 25 ppm after 4 hrs; type: organism-based; details: artemia, in vivo; read-out: Activity
[4] = Toxicity against brine shrimp assessed as mortality at 25 ppm after 24 hrs; type: organism-based; details: artemia, in vivo; read-out: Activity
Artemia = experiment: Toxicity against brine shrimp assessed as mortality at 25 ppm; type: organism-based; details: in vivo
Euphorbia esula = experiment: Phytotoxicity against Euphorbia esula assessed as necrotic lesions at 5 ug by nicked leaf assay; type: functional

Row | SMILES | mortality at 6 h, 25 ppm [1] | mortality at 8 h, 25 ppm [2] | mortality at 4 h, 25 ppm [3] | mortality at 24 h, 25 ppm [4] | Activity (Artemia) | Activity (Euphorbia esula)
1 | CC(=O)c1nccc2c1[nH]c1ccccc12 | 21% | 43% | 14% | 100% | – | –
2 | NC(=O)Cc1ccccc1 | – | – | – | – | Not Active | –
3 | Cc1cccc2c1[nH]c1ccccc12 | 100% | – | 82% | – | – | –
4 | CC(=O)/C=C/c1c[nH]c2ccccc12 | 0% | 8% | 0% | 39% | – | –
5 | CC(=O)/C=C/Cc1c[nH]c2ccccc12 | 0% | 27% | 0% | 91% | – | 2 mm
6 | CC(=O)/C=C/c1ccc(C)c(C)c1C | 50% | 90% | 0% | 100% | – | –
7 | CC(=O)/C=C/C(C)=C(\C)c1c[nH]c2ccccc12 | 20% | 20% | 20% | 70% | – | –
8 | O=C(CO)c1c[nH]c2ccccc12 | – | – | – | – | Not Active | –
